What was measured:
Type in all cases: cell-based, mouse
[1] = tested on: β-galactosidase in CMV-LacZ C2C12 myotubes; test: CMV-LacZ secondary screen in C2C12 myotubes (β-Gal stabilizing assay); details: for CMV-LACZ in Myotubes, signal relative to DMSO: C2C12 CMV-LacZ myotubes, fold relative to DMSO; for CMV-LACZ in Myotubes (β-galactosidase activity relative to DMSO): CMV-LacZ C2C12 myotubes, 96-well format
Summary of the method: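 First, C2C12 myoblasts were transfected with a linearized CMV-LACZ vector and clonal lines selected by FDG β-gal assay. Then cells were exposed to compounds at 0.5, 1, 5, 10, 20 and 40 μM in 96-well format, two replicates each, and β-gal measured.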

[2] = tested on: α7 integrin (LacZ reporter in α7βgal+/− myoblasts); test: Myoblast α7+/LacZ integrin FDG assay (Burkin assay in myoblasts, 96-well); details: α7+/LacZ myoblasts, 96-well
[3] = tested on: α7 integrin (LacZ reporter in α7+/LacZ myotubes); test: Myotube α7 integrin FDG assay (Burkin assay in myotubes, 96-well); details: myotubes

| Compound | CMV-LACZ in Myotubes, signal relative to DMSO ([1]; 5 uM) | CMV-LACZ in Myotubes, signal relative to DMSO ([1]; 10 uM) | CMV-LACZ in Myotubes, signal relative to DMSO ([1]; 20 uM) | CMV-LACZ in Myotubes, signal relative to DMSO ([1]; 40 uM) | Burkin Assay in Myoblasts, signal relative to DMSO ([2]; 0.5 uM) | Burkin Assay in Myoblasts, signal relative to DMSO ([2]; 1 uM) | Burkin Assay in Myoblasts, signal relative to DMSO ([2]; 5 uM) | Burkin Assay in Myoblasts, signal relative to DMSO ([2]; 10 uM) | Burkin Assay in Myoblasts, signal relative to DMSO ([2]; 20 uM) | Burkin Assay in Myoblasts, signal relative to DMSO ([2]; 40 uM) | Burkin Assay in Myotubes, α7 integrin LacZ reporter signal relative to DMSO ([3]; 0.5 uM) | Burkin Assay in Myotubes, α7 integrin LacZ reporter signal relative to DMSO ([3]; 1 uM) | Burkin Assay in Myotubes, α7 integrin LacZ reporter signal relative to DMSO ([3]; 5 uM) | Burkin Assay in Myotubes, α7 integrin LacZ reporter signal relative to DMSO ([3]; 10 uM) | Burkin Assay in Myotubes, α7 integrin LacZ reporter signal relative to DMSO ([3]; 20 uM) | Burkin Assay in Myotubes, α7 integrin LacZ reporter signal relative to DMSO ([3]; 40 uM) | Burkin Assay in Myoblasts, value relative to DMSO ([2]; 0.5 uM) | Burkin Assay in Myoblasts, value relative to DMSO ([2]; 1 uM) | Burkin Assay in Myoblasts, value relative to DMSO ([2]; 5 uM) | Burkin Assay in Myoblasts, value relative to DMSO ([2]; 10 uM) | also measured |
| --- | --- | --- | --- | --- | --- | --- | --- | --- | --- | --- | --- | --- | --- | --- | --- | --- | --- | --- | --- | --- | --- |
| O=C(Nc1ccccc1F)c1ccc([N+](=O)[O-])s1 [MLS000703499-01] | 0.9313 | 0.9968 | 0.689 | 0.769 | 0.7093 | 1.017 | 0.9278 | 0.7632 | 0.4465 | 0.1043 | 0.9725 | 0.8809 | 1.059 | 0.8518 | 1.101 | 0.4494 | – | – | – | – | – |
| O=C(COC(=O)Cn1cnc2ccccc21)Nc1cccc([N+](=O)[O-])c1 [MLS001005283-01] | 0.9005 | 0.9051 | 1.032 | 1.1425 | 0.8702 | 0.8582 | 0.9346 | 0.8908 | 0.8965 | 0.9301 | 0.9811 | 0.9951 | 0.8583 | 0.9141 | 0.9432 | 0.7596 | – | – | – | – | – |
| CC(C)(CC(=O)O)CC(=O)N1CCCN(c2nccc(C(F)(F)F)n2)CC1 [MLS001181671-01] | 0.8803 | 0.9201 | 1.03 | 0.9377 | – | – | – | – | – | – | – | – | – | – | – | – | 1.052 | 0.965 | 0.8759 | 0.8638 | Burkin Assay in Myoblasts, value relative to DMSO ([2]; 20 uM): 0.8113; Burkin Assay in Myoblasts, value relative to DMSO ([2]; 40 uM): 0.891; Burkin Assay in Myotubes (signal relative to DMSO) ([3]; 0.5 uM): 1.071; Burkin Assay in Myotubes (signal relative to DMSO) ([3]; 1 uM): 0.9095; Burkin Assay in Myotubes (signal relative to DMSO) ([3]; 5 uM): 1.337; Burkin Assay in Myotubes (signal relative to DMSO) ([3]; 10 uM): 1.22; Burkin Assay in Myotubes (signal relative to DMSO) ([3]; 20 uM): 0.9854; Burkin Assay in Myotubes (signal relative to DMSO) ([3]; 40 uM): 0.9878 |
| Cc1ccc(C2=C(CC(=O)O)C(=O)CC2)cc1 [MLS000553673-01] | 0.8021 | 0.9603 | 1.005 | 0.9127 | – | – | – | – | – | – | – | – | – | – | – | – | 1.009 | 0.8952 | 1.038 | 1.0007 | Burkin Assay in Myoblasts, value relative to DMSO ([2]; 20 uM): 0.9043; Burkin Assay in Myoblasts, value relative to DMSO ([2]; 40 uM): 0.8892; Burkin Assay in Myotubes (signal relative to DMSO) ([3]; 0.5 uM): 0.8749; Burkin Assay in Myotubes (signal relative to DMSO) ([3]; 1 uM): 0.8923; Burkin Assay in Myotubes (signal relative to DMSO) ([3]; 5 uM): 1.304; Burkin Assay in Myotubes (signal relative to DMSO) ([3]; 10 uM): 1.161; Burkin Assay in Myotubes (signal relative to DMSO) ([3]; 20 uM): 1.088; Burkin Assay in Myotubes (signal relative to DMSO) ([3]; 40 uM): 1.134 |
| N#Cc1ccc(OCC(O)CS(=O)(=O)c2ccccc2)cc1 (stereo not shown) [MLS000721584-01] | 0.9573 | 0.9071 | 1.133 | 1.1019 | 0.933 | 0.8525 | 1.03 | 0.9846 | 0.8663 | 0.7628 | 0.9148 | 0.9833 | 0.8802 | 0.8867 | 0.9155 | 0.9927 | – | – | – | – | – |
| Cc1ccc(S(=O)(=O)NC(C)C(=O)NC(C)c2cccs2)cc1 (stereo not shown) [MLS001221867-01] | 0.9954 | 0.9834 | 1.0515 | 1.0745 | 1.001 | 1.024 | 0.9275 | 0.922 | 0.9616 | 0.8943 | 0.9728 | 0.9422 | 0.9593 | 0.9374 | 1.02 | 0.9915 | – | – | – | – | – |
| COC(=O)C(=O)C/C(=N/Nc1ncnc2ccccc12)c1ccc(Cl)cc1 [MLS001174719-01] | 0.8551 | 0.832 | 0.9254 | 1.108 | – | – | – | – | – | – | – | – | – | – | – | – | 1.053 | 1.048 | 1.013 | 0.848 | Burkin Assay in Myoblasts, value relative to DMSO ([2]; 20 uM): 0.7524; Burkin Assay in Myoblasts, value relative to DMSO ([2]; 40 uM): 0.5265; Burkin Assay in Myotubes (signal relative to DMSO) ([3]; 0.5 uM): 1.135; Burkin Assay in Myotubes (signal relative to DMSO) ([3]; 1 uM): 1.001; Burkin Assay in Myotubes (signal relative to DMSO) ([3]; 5 uM): 1.128; Burkin Assay in Myotubes (signal relative to DMSO) ([3]; 10 uM): 1.034; Burkin Assay in Myotubes (signal relative to DMSO) ([3]; 20 uM): 0.9771; Burkin Assay in Myotubes (signal relative to DMSO) ([3]; 40 uM): 0.7374 |
| C/C(=N/OC(=O)CC(C)C)c1cc(-c2ccc(Cl)cc2)no1 [MLS000721030-01] | – | – | – | – | – | – | – | – | – | – | – | – | – | – | – | – | 0.9673 | 0.9348 | 1.027 | 1.166 | CMV-LACZ in Myotubes (β-galactosidase activity relative to DMSO) ([1]; 5 uM): 1.111; CMV-LACZ in Myotubes (β-galactosidase activity relative to DMSO) ([1]; 10 uM): 0.9655; CMV-LACZ in Myotubes (β-galactosidase activity relative to DMSO) ([1]; 20 uM): 0.9276; CMV-LACZ in Myotubes (β-galactosidase activity relative to DMSO) ([1]; 40 uM): 0.7917; Burkin Assay in Myoblasts, value relative to DMSO ([2]; 20 uM): 1.025; Burkin Assay in Myoblasts, value relative to DMSO ([2]; 40 uM): 1.122; Burkin Assay in Myotubes (signal relative to DMSO) ([3]; 0.5 uM): 0.9757; Burkin Assay in Myotubes (signal relative to DMSO) ([3]; 1 uM): 1.051; Burkin Assay in Myotubes (signal relative to DMSO) ([3]; 5 uM): 1.121; Burkin Assay in Myotubes (signal relative to DMSO) ([3]; 10 uM): 1.2344; Burkin Assay in Myotubes (signal relative to DMSO) ([3]; 20 uM): 1.1412; Burkin Assay in Myotubes (signal relative to DMSO) ([3]; 40 uM): 1.205 |
| c1ccc(-c2cnc(-c3ccccc3)nc2)cc1 [MLS000532078-01] | 0.791 | 0.8914 | 0.9443 | 0.8623 | – | – | – | – | – | – | – | – | – | – | – | – | 1.091 | 1.076 | 0.944 | 0.9431 | Burkin Assay in Myoblasts, value relative to DMSO ([2]; 20 uM): 1.09; Burkin Assay in Myoblasts, value relative to DMSO ([2]; 40 uM): 1.077; Burkin Assay in Myotubes (signal relative to DMSO) ([3]; 0.5 uM): 1.0727; Burkin Assay in Myotubes (signal relative to DMSO) ([3]; 1 uM): 1.078; Burkin Assay in Myotubes (signal relative to DMSO) ([3]; 5 uM): 1.239; Burkin Assay in Myotubes (signal relative to DMSO) ([3]; 10 uM): 1.114; Burkin Assay in Myotubes (signal relative to DMSO) ([3]; 20 uM): 1.078; Burkin Assay in Myotubes (signal relative to DMSO) ([3]; 40 uM): 1.043 |
| Cc1ccc(C(=O)C(C)OC(=O)CNC(=O)c2ccc(Br)o2)cc1 (stereo not shown) [MLS001160885-01] | 1.167 | 0.9009 | 0.9095 | 0.8319 | 1.05 | 0.9356 | 0.9402 | 0.9147 | 1.021 | 0.7914 | 1 | 0.9569 | 1.108 | 1.146 | 1.018 | 0.92 | – | – | – | – | – |

Source: patent publication US9980943B2, “Methods of treating muscular dystrophy” (BOARD OF REGENTS OF THE NEVADA SYSTEM OF HIGHER EDUCATION, …, priority 2013, dated 2018)
